Experimental data published in patent US20240417370A1, “LIPIDS FOR USE IN LIPID NANOPARTICLE FORMULATIONS” (Acuitas Therapeutics, Inc., priority 2023, published 2024).

Tests used:
[1] = tested on: luciferase expression in the liver; test: Luciferase mRNA in vivo evaluation using lipid nanoparticle compositions; parameters: species or system mice; conditions: LNP-formulated lipid, tail vein injection, ng luciferase/g liver 4 hours after administration; for Liver Luc @ 0.3 mg/kg: 0.3 mg mRNA/kg; for Liver Luc @ 1.0 mg/kg: 1.0 mg mRNA/kg
Method: (§1) A lipid of structure (I), DSPC, cholesterol and PEG-lipid are solubilized in ethanol at a molar ratio of 50:10:38.5:1.5 or 47.5:10:40.7:1.8. Lipid nanoparticles (LNP) are prepared at a total lipid to mRNA weight ratio of approximately 10:1 to 40:1. Briefly, the mRNA is diluted to 0.2 mg/mL in 10 to 50 mM citrate buffer, pH 4 to 6 or 10 to 25 mM acetate buffer, pH 4. Syringe pumps are used to mix the ethanolic lipid solution with the mRNA aqueous solution at a ratio of about 1:5 to 1:3 (vol/vol) with total flow rates above 15 mL/min. The ethanol is then removed, and the external buffer replaced with PBS by dialysis. Finally, the lipid nanoparticles are filtered through a 0.2 µm pore sterile filter.
Studies are performed in 6-8-week-old female C57BL/6 mice (Charles River) 8-10-week-old CD-1 mice (Charles River or Inotiv) according to guidelines established by an institutional animal care committee (ACC) and the Canadian Council on Animal Care (CCAC). Varying doses of mRNA-lipid nanoparticle are systemically administered by tail vein injection and animals euthanized at a specific time point (e.g., 4 hours) post-administration. Liver and spleen are collected in pre-weighed tubes, weights determined, immediately snap frozen in liquid nitrogen, and stored at −80° C. until processing for analysis.
For liver, approximately 50 mg is dissected for analyses in a 2 mL FastPrep tubes (MP Biomedicals, Solon OH). ¼″ ceramic sphere (MP Biomedicals) is added to each tube and 500-750 μL of Glo Lysis Buffer—GLB (Promega, Madison WI) equilibrated to room temperature is added to liver tissue. Liver tissues are homogenized with the FastPrep24 instrument (MP Biomedicals) at 2×6.0 m/s for 15 seconds. Homogenate is incubated at room temperature for 5 minutes prior to a 1:4 to 1:6 dilution in GLB and assessed using SteadyGlo Luciferase assay system (Promega). Specifically, 50 μL of diluted tissue homogenate is reacted with 50 μL of SteadyGlo substrate, shaken for 10 seconds followed by 5-minute incubation and then luminescence was quantitated using a FilterMax F5 Microplate Reader (Molecular Devices, USA). The amount of protein assayed is determined by using the BCA protein assay kit (Pierce, Rockford, IL). Relative luminescence units (RLU) were then normalized to total μg protein or weight (g) of tissue assayed. To convert RLU to ng luciferase a standard curve is generated with QuantiLum Recombinant Luciferase (Promega).
The FLuc mRNA (L-7202) from Trilink Biotechnologies will express a luciferase protein, originally isolated from the firefly, Photinus pyralis. Flue is commonly used in mammalian cell culture to measure both gene expression and cell viability. It emits bioluminescence in the presence of the substrate, luciferin. This capped and polyadenylated mRNA is modified with 5-methoxyuridine and optimized for mammalian systems.
(§2) Representative compounds of the disclosure shown in Table 2 were formulated using the following molar ratio: 50% cationic lipid/10% distearoylphosphatidylcholine (DSPC)/38.5% Cholesterol/1.5% PEG lipid 2-[2-(ω-methoxy(polyethyleneglycol2000)ethoxy]-N,N-ditetradecylacetamide) or 47.5% cationic lipid/10% DSPC/40.7% Cholesterol/1.8% PEG lipid. Relative activity was determined by measuring luciferase expression in the liver 4 hours following administration via tail vein injection as described in Example 1 or by measuring the amount of human IgG in mouse serum as described in example 2. The activity was compared at a dose of 1.0 or 0.5 or 0.3 mg mRNA/kg and expressed as ng luciferase/g liver measured 4 hours after administration, as described in Example 1 or as μg IgG/mL serum measured 24 hours after administration, as described in Example 2. Compound numbers in Table 2 refer to the compound numbers of Table 1.

[2] = tested on: human IgG in mouse serum; test: Immunoglobulin G (IgG) mRNA in vivo evaluation using lipid nanoparticle compositions; parameters: species or system mice; conditions: LNP-formulated lipid, tail vein injection, μg IgG/mL serum 24 hours after administration; for Serum IgG @ 0.3 mg/kg: 0.3 mg mRNA/kg; for Serum IgG @ 1.0 mg/kg: 1.0 mg mRNA/kg
Method: as §1, with “4 to 6.” for “4.”
Studies are performed in 6-8-week-old CD-1/ICR mice (Envigo, Charles River, or Inotiv) according to guidelines established by an institutional animal care committee (ACC) and the Canadian Council on Animal Care (CCAC). Varying doses of mRNA-lipid nanoparticle are systemically administered by tail vein injection and animals euthanized at a specific time point (e.g., 24 hours) post-administration. The whole blood is collected, and the serum subsequentially separated by centrifuging the tubes of the whole blood at 2000×g for 10 minutes at 4° C. and stored at −80° C. until use for analysis.
For immunoglobulin G (IgG) ELISA (Life Diagnostics Human IgG ELISA kit), the serum samples are diluted at 100 to 20,000 folds with 1× diluent solution. 100 μL of diluted serum is dispensed into anti-human IgG coated 96-well plate in duplicate alongside human IgG standards and incubated in a plate shaker at 150 rpm at 25° C. for 45 minutes. The wells are washed 5 times with 1× wash solution using a plate washer (400 μL/well). 100 μL of HRP conjugate is added into each well and incubated in a plate shaker at the same condition above. The wells are washed 5 times again with 1× wash solution using a plate washer (400 μL/well). 100 μL of TMB reagent is added into each well and incubated in a plate shaker at the same condition above. The reaction is stopped by adding 100 μL of Stop solution to each well. The absorbance is read at 450 nm (A450) with a microplate reader. The amount of human IgG in mouse serum is determined by plotting A450 values for the assay standard against human IgG concentration.
as §2

## CCCCCCCCCCN(CCCCCCCCCC)C(=O)CCCCCCCN(CCCCCCCC(=O)N(CCCCCCCCCC)CCCCCCCCCC)CC[C@H]1C[C@@H](O)C1 [(1S, 3R) I-1, 8,8′-((2-((1S,3R)-3-hydroxycyclobutyl)ethyl)azanediyl)bis(N,N-didecyloctanamide)]
[1]
  Liver Luc @ 0.3 mg/kg: 18927 ± 2102 ng/g
  Liver Luc @ 1.0 mg/kg: 79233 ± 12026 ng/g

## CCCCCCCCCCN(CCCCCCCCCC)C(=O)CCCCCCCN(CCCCCCCC(=O)N(CCCCCCCCCC)CCCCCCCCCC)C[C@H]1C[C@H](O)C1 [(1R, 3R) I-2, 8,8′-((((1R,3R)-3-hydroxycyclobutyl)methyl)azanediyl)bis(N,N-didecyloctanamide)]
[1]
  Liver Luc @ 0.3 mg/kg: 12651 ± 3017 ng/g
  Liver Luc @ 1.0 mg/kg: 82113 ± 14450 ng/g

## CCCCCCCCCCN(CCCCCCCCCC)C(=O)CCCCCCCN(CCCCCCCC(=O)N(CCCCCCCCCC)CCCCCCCCCC)[C@H]1C[C@H](O)C[C@H](O)C1 [(1s, 3R, 5S) I-34, 8,8′-(((1s,3r,5s)-3,5-dihydroxycyclohexyl)azanediyl)bis(N,N-didecyloctanamide)]
[2]
  Serum IgG @ 0.3 mg/kg: 7.06 ± 4.68 µg/mL
  Serum IgG @ 1.0 mg/kg: 57.07 ± 24.86 µg/mL

## CCCCCCCCCCN(CCCCCCCCCC)C(=O)CCCCCCCN(CCCCCCCC(=O)N(CCCCCCCCCC)CCCCCCCCCC)[C@H]1CC[C@](C)(O)CC1 [(1R, 4R) I-25, 8,8′-(((1R,4R)-4-hydroxy-4-methylcyclohexyl)azanediyl)bis(N,N-didecyloctanamide)]
[2]
  Serum IgG @ 0.3 mg/kg: 14.03 ± 2.71 µg/mL
  Serum IgG @ 1.0 mg/kg: 105.77 ± 19.44 µg/mL

## CCCCCCCCCCN(CCCCCCCCCC)C(=O)CCCCCCCN(CCCCCCCC(=O)N(CCCCCCCCCC)CCCCCCCCCC)C[C@H]1C[C@@H](O)C1 [(1S, 3S) I-2, 8,8′-((((1S,3S)-3-hydroxycyclobutyl)methyl)azanediyl)bis(N,N-didecyloctanamide)]
[1]
  Liver Luc @ 0.3 mg/kg: 10872 ± 2411 ng/g
  Liver Luc @ 1.0 mg/kg: 91854 ± 15303 ng/g

## CCCCCCCCCCN(CCCCCCCCCC)C(=O)CCCCCCCCCN(CCCCCCCCCC(=O)N(CCCCCCCCCC)CCCCCCCCCC)[C@H]1CC[C@@H](O)CC1 [(1S, 4S) I-60, 10,10′-(((1s,4s)-4-hydroxycyclohexyl)azanediyl)bis(N,N-didecyldecanamide)]
[2]
  Serum IgG @ 0.3 mg/kg: 15.65 ± 5.31 µg/mL

## CCCCCCCCCCN(CCCCCCCCCC)C(=O)CCCCCCCN(CCCCCCCC(=O)N(CCCCCCCCCC)CCCCCCCCCC)[C@H]1C[C@H](O)C1 [(1R, 3R) I-5, 8,8′-(((1R,3R)-3-hydroxycyclobutyl)azanediyl)bis(N,N-didecyloctanamide)]
[2]
  Serum IgG @ 0.3 mg/kg: 44.52 ± 9.89 µg/mL
  Serum IgG @ 1.0 mg/kg: 215.61 ± 28.80 µg/mL

## CCCCCCCCCCCCN(CCCCCC)C(=O)CCCCCCCN(CCCCCCCC(=O)N(CCCCCCCCCC)CCCCCCCCCC)[C@H]1CC[C@@H](O)CC1 [(1S, 4S) I-56, N,N-didecyl-8-((8-(dodecyl(hexyl)amino)-8-oxooctyl)((1s,4s)-4-hydroxycyclohexyl)amino)octanamide]
[2]
  Serum IgG @ 0.3 mg/kg: 52.9 ± 17.00 µg/mL

## C=CCCCCCCCCN(CCCCCCCCC=C)C(=O)CCCCCCCN(CCCCCCCC(=O)N(CCCCCCCCC=C)CCCCCCCCC=C)[C@H]1CC[C@@H](O)CC1 [(1S, 4S) I-53, 8,8′-(((1s,4s)-4-hydroxycyclohexyl)azanediyl)bis(N,N-di(dec-9-en-1-yl)octanamide)]
[2]
  Serum IgG @ 0.3 mg/kg: 81.56 ± 44.40 µg/mL
